Assay results taken from ChEMBL document CHEMBL1201862, “PubChem BioAssay data set” (2004).
Values belong to the compound of their own block, whether it stands above or below them. Calls of active or inactive are those of the source.

Legend:
[1] = molecular target: Endoplasmic reticulum aminopeptidase 1 (Homo sapiens, UniProt Q9NZ08); test: inhibition of human ERAP1 enzyme activity – biochemical, cherry-pick, set 2, plate reader, dose response (AID 743314)
[2] = viability loss in HEK293T cells – cell-based, cherry-picks, cytotoxicity control for HIV Vif inhibitor project, dose response (AID 652208); format: functional
[3] = molecular target: Potassium channel subfamily K member 3 (Homo sapiens, UniProt O14649); test: inhibition of human KCNK3 channel flux – CHO cells, FluxOR thallium flux, SAR follow-up (AID 652212); format: functional
[4] = molecular target: Metabotropic glutamate receptor 5 (Rattus norvegicus, UniProt P31424); test: Identification of a glycine sulfonamide based non-MPEP site positive allosteric potentiator (PAM) of mGlu5 (calcium_assay).; format: functional
[5] = molecular target: T1, Trace amine-associated receptor 1 (Homo sapiens, UniProt Q96RJ0); test: Counterscreen for antagonists of the human trace amine associated receptor 1 (hTAAR1): Fluorescence-based cell-based high throughput dose response assay to identify TAAR1 Agonists.; format: functional
T1 sequence (Q96RJ0 whole entry): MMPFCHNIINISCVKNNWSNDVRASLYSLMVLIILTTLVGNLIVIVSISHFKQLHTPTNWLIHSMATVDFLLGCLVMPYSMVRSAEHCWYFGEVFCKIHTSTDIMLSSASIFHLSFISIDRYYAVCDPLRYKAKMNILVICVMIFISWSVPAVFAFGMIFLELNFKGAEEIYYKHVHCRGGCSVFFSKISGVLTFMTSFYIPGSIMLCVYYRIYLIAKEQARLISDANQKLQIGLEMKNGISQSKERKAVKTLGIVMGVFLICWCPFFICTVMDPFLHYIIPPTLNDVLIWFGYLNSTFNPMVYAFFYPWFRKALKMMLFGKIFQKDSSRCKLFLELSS

[6] = Counterscreen for […] of the human trace amine associated receptor 1 (TAAR1): Fluorescence-based cell-based high throughput dose response assay to identify nonselective Ga16 agonists.; format: functional
[7] = Counterscreen for antagonists of the human trace amine associated receptor 1 (hTAAR1): Fluorescence-based cell-based high throughput dose response assay to identify nonselective Ga16 antagonists.; format: functional
[8] = molecular target: T1, Trace amine-associated receptor 1; test: Fluorescence-based cell-based high throughput dose response assay to identify antagonists of the human trace amine associated receptor 1 (TAAR1).; format: functional
[9] = viability loss in HepG2 hepatoma cells – cell-based, ATP luminescence, cherry-pick, activator set 2, cytotoxicity control, dose response (AID 1053143); format: functional
cells [10] = conditions: A549
[11] = molecular target: Lysosomal acid glucosylceramidase (Homo sapiens, UniProt P04062); test: Dose response cell-based high throughput screening assay to identify enhancers of beta-glucosidase activity. [Related pubchem assays: 784 ]; format: functional
cells [12] = conditions: HEK293
HT-1080 = test: HT1080 cell viability loss – fluorescence readout (AID 620); format: functional, cell-based; conditions: Homo sapiens
[13] = viability of PTEN-deleted HCT116 cells – cell-based, HCT116 PTEN knockout, dose response (AID 1047); format: functional;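 further: HCT116 colon tumor cells with PTEN knocked out; cells exposed to compound for 60 hours before readout; potency for loss of cell viability measured by luminescence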
[14] = viability of HCT116 lacking mutant beta-catenin – cell-based, human colon tumor, dose response (AID 1045); format: functional;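 further: HCT116 colon tumor cells with beta catenin knocked out; cells exposed to compound for 60 hours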
[15] = molecular target: Luciferin 4-monooxygenase (Photinus pyralis, UniProt P08659); test: Counter Screen for Luciferase-based Assay Positives. [Related pubchem assays: 620, 618, 411 ]
[16] = molecular target: Oxysterols receptor LXR-beta (Homo sapiens, UniProt P55055); format: functional, cell-based;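 further: agonist activity at LXR measured by a cell-based luminescence readout across a dose range, run as a counterscreen for daf-12 agonists; HEK293 cells with Gal4-LXR fusion and GAL4-driven luciferase reporter; potency for activation of Gal4-LXR reporter so compounds are agonists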
Vero = test: viability loss in Vero cells – cell-based, plate reader, cherry-pick samples, cytotoxicity control, dose response (AID 687020); format: functional; conditions: Chlorocebus sabaeus
[17] = viability loss in CEM21 cells – cell-based, CellTiter-Glo luminescence, cherry-picked, cytotoxicity control for viral fusion inhibitor project, dose response (AID 652042); format: functional;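 further: potency for signal decrease meaning cytotoxicity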
[18] = off-target signal loss in HeLa-CEM21 co-culture – HeLa F-luc CTL cells, cherry-picked, counter-screen for HIV-1 Env fusion inhibitor project, dose response (AID 652040); format: functional, cell-based;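 further: potency for signal decrease marking cytotoxic or nonspecific inhibition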
[19] = molecular target: Disintegrin and metalloproteinase domain-containing protein 17 (Homo sapiens, UniProt P78536); test: inhibition of ADAM17 substrate cleavage – biochemical, quenched FRET substrate, counter-screen for ADAM10 exosite inhibitor project, dose response (AID 743253)
[20] = potency of ADAM10 substrate cleavage blockers – biochemical, QFRET, dose response (AID 743254);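 further: ADAM10 enzyme with the DM2 quenched FRET peptide as substrate; EDANS fluorescence gain as the protease cuts the substrate; inhibitor potency against ADAM10 proteolytic activity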
[21] = blockers of HIV-1 envelope-mediated cell-cell fusion – cherry-pick, dose response (AID 652057); format: functional, cell-based
[22] = HepG2 cell viability loss – cherry-picked samples, cytotoxicity control, dose response (AID 1053183); format: functional, cell-based
[23] = HEK293 cell viability loss – cherry-picked samples, cytotoxicity control, dose response (AID 1053185); format: functional, cell-based
[24] = HeLa cell viability loss – 24 h, dry powder, set 2, cytotoxicity control, dose response (AID 651774); format: functional, cell-based

Endoplasmic reticulum aminopeptidase 1, sequence (Q9NZ08 whole entry): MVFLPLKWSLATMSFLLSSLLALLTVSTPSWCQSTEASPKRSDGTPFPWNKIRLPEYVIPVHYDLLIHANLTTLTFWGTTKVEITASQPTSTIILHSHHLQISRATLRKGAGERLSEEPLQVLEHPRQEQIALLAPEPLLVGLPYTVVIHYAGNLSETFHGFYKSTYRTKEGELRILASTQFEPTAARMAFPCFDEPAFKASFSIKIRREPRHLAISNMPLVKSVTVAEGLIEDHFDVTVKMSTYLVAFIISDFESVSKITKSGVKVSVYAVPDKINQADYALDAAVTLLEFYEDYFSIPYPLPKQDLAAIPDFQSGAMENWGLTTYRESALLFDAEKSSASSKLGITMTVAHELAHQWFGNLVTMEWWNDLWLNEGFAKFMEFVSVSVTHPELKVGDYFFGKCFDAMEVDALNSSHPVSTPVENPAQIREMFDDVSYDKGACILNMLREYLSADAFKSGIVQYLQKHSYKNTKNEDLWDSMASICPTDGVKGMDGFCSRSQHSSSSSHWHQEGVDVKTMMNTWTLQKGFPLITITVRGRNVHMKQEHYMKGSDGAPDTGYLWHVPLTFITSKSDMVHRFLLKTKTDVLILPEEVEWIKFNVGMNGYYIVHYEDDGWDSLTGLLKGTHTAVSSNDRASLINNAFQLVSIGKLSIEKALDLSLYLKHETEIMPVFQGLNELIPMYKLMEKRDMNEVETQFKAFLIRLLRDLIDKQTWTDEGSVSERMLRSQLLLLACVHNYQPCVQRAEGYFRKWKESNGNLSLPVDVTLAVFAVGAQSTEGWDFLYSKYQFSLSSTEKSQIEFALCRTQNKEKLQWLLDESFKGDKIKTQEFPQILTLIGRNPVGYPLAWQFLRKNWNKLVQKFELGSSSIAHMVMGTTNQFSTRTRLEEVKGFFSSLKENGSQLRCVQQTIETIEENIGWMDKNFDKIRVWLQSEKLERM
Potassium channel subfamily K member 3, sequence (O14649 whole entry): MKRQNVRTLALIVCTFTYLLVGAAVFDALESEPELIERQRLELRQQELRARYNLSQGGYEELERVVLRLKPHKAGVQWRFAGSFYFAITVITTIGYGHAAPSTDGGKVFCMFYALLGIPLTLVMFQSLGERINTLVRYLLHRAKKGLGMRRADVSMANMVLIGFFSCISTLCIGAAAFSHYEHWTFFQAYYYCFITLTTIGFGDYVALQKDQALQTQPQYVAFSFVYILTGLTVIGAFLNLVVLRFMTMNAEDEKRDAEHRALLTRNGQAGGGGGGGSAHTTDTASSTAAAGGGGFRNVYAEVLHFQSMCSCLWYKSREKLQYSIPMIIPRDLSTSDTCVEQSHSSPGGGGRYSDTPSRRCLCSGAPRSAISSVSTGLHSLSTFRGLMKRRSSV
Disintegrin and metalloproteinase domain-containing protein 17, sequence (P78536 whole entry, the tested form may be a part): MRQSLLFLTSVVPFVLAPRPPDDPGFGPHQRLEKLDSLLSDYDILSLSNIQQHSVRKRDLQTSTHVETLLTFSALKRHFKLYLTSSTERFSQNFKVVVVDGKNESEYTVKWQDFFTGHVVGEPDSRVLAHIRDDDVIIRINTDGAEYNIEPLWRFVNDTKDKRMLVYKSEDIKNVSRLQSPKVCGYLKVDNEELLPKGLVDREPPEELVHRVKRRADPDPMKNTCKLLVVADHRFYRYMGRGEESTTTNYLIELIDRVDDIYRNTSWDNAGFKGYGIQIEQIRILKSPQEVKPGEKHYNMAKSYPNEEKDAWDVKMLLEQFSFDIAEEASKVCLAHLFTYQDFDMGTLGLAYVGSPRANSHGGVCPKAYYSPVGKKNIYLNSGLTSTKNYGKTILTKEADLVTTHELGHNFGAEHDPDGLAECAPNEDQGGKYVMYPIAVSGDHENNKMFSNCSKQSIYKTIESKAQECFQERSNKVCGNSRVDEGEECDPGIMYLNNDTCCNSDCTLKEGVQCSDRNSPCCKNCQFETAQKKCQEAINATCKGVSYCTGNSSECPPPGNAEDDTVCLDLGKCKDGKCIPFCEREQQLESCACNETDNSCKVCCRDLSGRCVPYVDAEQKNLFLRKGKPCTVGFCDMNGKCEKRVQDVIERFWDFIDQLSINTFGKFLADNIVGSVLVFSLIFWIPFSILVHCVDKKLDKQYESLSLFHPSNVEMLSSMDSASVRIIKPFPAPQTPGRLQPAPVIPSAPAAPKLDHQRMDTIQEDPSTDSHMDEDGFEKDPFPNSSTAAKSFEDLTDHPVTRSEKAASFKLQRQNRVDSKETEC
Oxysterols receptor LXR-beta, sequence (P55055 whole entry, the tested form may be a part): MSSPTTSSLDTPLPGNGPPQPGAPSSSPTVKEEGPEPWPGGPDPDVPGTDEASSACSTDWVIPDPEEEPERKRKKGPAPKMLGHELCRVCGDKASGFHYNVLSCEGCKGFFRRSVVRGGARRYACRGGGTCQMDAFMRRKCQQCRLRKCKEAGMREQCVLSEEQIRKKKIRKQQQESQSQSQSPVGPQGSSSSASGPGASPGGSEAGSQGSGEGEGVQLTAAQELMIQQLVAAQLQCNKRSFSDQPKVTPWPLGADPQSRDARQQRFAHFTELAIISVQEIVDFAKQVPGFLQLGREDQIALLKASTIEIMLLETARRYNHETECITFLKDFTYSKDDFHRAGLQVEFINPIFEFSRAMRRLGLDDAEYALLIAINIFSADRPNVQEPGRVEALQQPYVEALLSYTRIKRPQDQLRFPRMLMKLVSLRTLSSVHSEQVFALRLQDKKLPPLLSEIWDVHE
Lysosomal acid glucosylceramidase, sequence (P04062 whole entry): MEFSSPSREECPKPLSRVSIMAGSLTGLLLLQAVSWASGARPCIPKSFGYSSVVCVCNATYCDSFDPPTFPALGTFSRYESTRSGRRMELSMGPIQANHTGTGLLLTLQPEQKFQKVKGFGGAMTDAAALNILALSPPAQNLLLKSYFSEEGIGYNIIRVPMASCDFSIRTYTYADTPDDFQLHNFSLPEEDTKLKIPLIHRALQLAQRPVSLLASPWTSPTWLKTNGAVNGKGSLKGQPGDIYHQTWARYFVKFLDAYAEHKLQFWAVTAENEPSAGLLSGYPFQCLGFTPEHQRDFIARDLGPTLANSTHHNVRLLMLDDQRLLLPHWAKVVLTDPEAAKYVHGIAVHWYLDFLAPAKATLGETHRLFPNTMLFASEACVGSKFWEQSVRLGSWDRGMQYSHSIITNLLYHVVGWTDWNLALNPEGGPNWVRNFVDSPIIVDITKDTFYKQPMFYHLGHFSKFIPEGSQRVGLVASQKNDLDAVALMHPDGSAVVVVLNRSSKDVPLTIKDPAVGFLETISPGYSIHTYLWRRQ
Metabotropic glutamate receptor 5, sequence (P31424 whole entry): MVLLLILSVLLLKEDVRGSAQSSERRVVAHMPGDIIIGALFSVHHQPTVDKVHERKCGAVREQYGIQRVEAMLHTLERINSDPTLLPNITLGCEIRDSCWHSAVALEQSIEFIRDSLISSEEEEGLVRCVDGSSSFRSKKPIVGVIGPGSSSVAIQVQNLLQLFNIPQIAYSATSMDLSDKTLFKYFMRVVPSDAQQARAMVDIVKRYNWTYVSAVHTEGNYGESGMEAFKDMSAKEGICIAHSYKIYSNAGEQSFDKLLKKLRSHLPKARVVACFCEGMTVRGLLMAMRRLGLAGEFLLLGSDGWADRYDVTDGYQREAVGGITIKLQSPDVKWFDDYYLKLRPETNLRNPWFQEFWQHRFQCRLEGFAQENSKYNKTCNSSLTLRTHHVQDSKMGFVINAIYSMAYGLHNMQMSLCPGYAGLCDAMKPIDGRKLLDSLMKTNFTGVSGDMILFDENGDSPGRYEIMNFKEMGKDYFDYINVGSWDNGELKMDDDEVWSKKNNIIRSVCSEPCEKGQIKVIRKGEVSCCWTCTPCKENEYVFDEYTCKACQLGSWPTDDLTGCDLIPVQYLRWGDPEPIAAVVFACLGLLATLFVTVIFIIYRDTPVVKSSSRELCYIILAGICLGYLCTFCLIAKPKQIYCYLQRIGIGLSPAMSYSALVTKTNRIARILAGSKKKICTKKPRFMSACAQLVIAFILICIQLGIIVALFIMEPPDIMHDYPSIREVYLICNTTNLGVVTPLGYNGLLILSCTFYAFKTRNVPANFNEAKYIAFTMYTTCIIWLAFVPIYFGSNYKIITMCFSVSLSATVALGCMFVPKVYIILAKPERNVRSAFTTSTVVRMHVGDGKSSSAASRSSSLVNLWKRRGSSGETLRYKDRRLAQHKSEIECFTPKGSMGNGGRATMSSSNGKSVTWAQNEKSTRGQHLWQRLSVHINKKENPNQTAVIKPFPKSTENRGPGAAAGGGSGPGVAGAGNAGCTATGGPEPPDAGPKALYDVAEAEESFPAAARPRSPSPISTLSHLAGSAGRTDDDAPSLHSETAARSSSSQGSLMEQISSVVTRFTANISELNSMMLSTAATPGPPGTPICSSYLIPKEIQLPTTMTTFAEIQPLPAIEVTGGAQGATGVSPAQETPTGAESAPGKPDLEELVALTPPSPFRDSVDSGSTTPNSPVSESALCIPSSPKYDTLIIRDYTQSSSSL
Luciferin 4-monooxygenase, sequence (P08659 whole entry, the tested form may be a part): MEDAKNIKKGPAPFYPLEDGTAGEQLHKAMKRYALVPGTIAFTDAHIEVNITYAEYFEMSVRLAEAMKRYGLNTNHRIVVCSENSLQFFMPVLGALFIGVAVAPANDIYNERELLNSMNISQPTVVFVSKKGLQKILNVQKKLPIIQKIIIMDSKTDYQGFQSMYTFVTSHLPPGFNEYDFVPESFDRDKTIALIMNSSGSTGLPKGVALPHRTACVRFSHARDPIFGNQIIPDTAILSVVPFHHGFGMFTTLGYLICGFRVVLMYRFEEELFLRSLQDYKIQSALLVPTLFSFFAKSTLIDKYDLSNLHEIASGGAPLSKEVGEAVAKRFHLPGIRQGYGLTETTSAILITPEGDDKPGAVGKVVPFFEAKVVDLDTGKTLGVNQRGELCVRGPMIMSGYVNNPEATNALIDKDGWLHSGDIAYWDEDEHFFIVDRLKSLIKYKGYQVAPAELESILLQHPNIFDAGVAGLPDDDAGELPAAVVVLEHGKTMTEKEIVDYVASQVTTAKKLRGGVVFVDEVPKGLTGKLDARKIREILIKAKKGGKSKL

SMILES: Cc1cc(=O)oc2c(CN3CCCCC3)c(O)ccc12
AC50 [1]: 5.18 µM (active)

SMILES: NC(c1csc(Nc2ccc(C(=O)c3ccccc3)cc2)n1)C1CCCCC1 (stereo unspecified)
AC50 [2]: 26.6 µM (active)

IC50 [3]: 5.59 µM (active)
SMILES: Cc1cccc(C(=O)Nc2ccccc2C(=O)Nc2ccccc2)c1

EC50 [4]: 10 µM (inconclusive)
SMILES: CC(C(=O)Nc1cc(Cl)ccn1)N(c1ccccc1Cl)S(C)(=O)=O (stereo unspecified)

SMILES: COC(=O)Cc1nnn2c1[C@H](C)[C@H](c1ccccc1Br)OCC2
EC50 [5]: > 29.9 µM (inactive) | EC50 [6]: > 29.9 µM (inactive) | IC50 [7]: > 29.9 µM (inactive) | IC50 [8]: 1.28 µM (active)

SMILES: c1csc(-c2ccc(N3CCOCC3)nn2)c1
AC50 [9]: 26 µM (active)

SMILES: Cc1cc2c(C)cc(=O)oc2c2c1NCCC2
AC50 (cells [10]): > 52 µM (inactive) | EC50 [11]: > 50 µM (not active) | AC50 (cells [12]): > 52 µM (inactive)

SMILES: Clc1cccc(-c2nnc(-c3ccccc3)o2)c1
EC50 (HT-1080): > 50 µM (not active) | EC50 [13]: 49 µM (active) | EC50 [14]: 26.3 µM (active) | EC50 [15]: 50.7 µM (active) | EC50 [16]: > 67.5 µM (inactive)

SMILES: CCCN(CC(=O)Nc1ccccc1C)C(=O)C1CCN(S(=O)(=O)c2ccc(C)c(C)c2)CC1
AC50 (Vero): 13.2 µM (active)

SMILES: COc1cc2c(cc1OC)C(=O)N1[C@H]3c4cc(Cl)ccc4OC[C@@H]3[C@H](c3ccccc3)[C@]1(C)C(=O)N2
AC50 [17]: 53.4 µM (active) | AC50 [18]: 21 µM (active) | IC50 [19]: > 69.5 µM (inactive) | IC50 [20]: > 69.5 µM (inactive) | AC50 [21]: 8.86 µM (active)

SMILES: N#Cc1cccc(-c2ccc([C@H]3[C@@H]4CN(C(=O)Nc5ccc(C(F)(F)F)cc5)C[C@H]3N4)cc2)c1
AC50 [22]: 36.1 µM (active) | AC50 [23]: > 52 µM (inactive)

SMILES: O=C(Nc1ccc(-c2ccccc2)cc1)NC1CCCC1
AC50 [24]: 68 µM (active)
